Two molecules from patent US20170355956A1, “COMPOSITIONS FOR INCREASING SURVIVAL OF MOTOR NEURON PROTEIN (SMN) LEVELS IN TARGET CELLS AND METHODS OF USE THEREOF FOR THE TREATMENT OF SPINAL MUSCULAR ATROPHY” (RUTGERS, THE STATE UNIVERSITY OF NEW JERSEY, priority 2014, published 2017) can be followed below.

What all share (type): cell-based
Data set [1] has as its system endogenous DcpS exon 4 splice site. Kind of data set: Antisense splice switching of endogenous DcpS, splicing patterns by RT-PCR. As to conditions: 293T cells. The method, then: FIG. 6. Splice switching of endogenous DcpS intron 4 to the DcpS^In15 alternative site. Vivo-morpholino antisense oligonucleotide (red line) was added to GM03813 cells and DcpS splicing tested. Schematic on lower right depicts the splicing pattern resulting with the indicated concentration of vivo-morpholino and arrows denote the primers used. Endogenous splicing is inhibited and shifted to the alternative site 45nt downstream as well as exon 4 skipping. Bottom panel is a control of exon2-exon3 junction not affected by the oligonucleotide. An exemplary antisense molecule comprises 5′ TTCCAGCCAGAAA CCTTTACCTGCT 3′ (SEQ ID NO: 1). However, antisense oligonucleotides can be designed to hybridize to the any contiguous 20-25 mer present in the DcpS variant sequence shown in FIG. 6.
Shifting of the endogenous DcpS gene to express the DcpS^In15 variant can also be accomplished by antisense oligonucleotide splice switching technology. With this approach, an antisense oligonucleotide complementary to the endogenous splice site is used to block the endogenous site and shift the splicing pattern to the DcpS^In15 pattern in SMA patient cells. The objective is to alter the endogenous DcpS splicing in order to generate sufficient levels of DcpS^In15 thereby elevating SMN2 gene expression and increasing levels of full length SMN protein. 293T cells were treated with 5 μM antisense morpholino oligonucleotide containing a cell permeable guanidinium based dendramer delivery system (vivo-morpholino; GeneTools LLC) for 24 hours and splicing patterns determined by RT-PCR. […] Instead ˜50% of the splicing utilizes the DcpS^In15 splice site 45 nucleotides downstream analogous to that observed in the homozygous DcpS^In15 ID patient cells, and ˜50% results in both sites being blocked and skipping of exon 4 entirely. In the latter case (lower panel in FIG. 6), splicing bypasses exon 4 and goes from exon 3 to exon 5. […] The invention also encompasses optimized oligonucleotide sequences comprising altered nucleotide backbones, and small molecules that can shift splicing to further improve levels of DcpS^In15, thereby elevating SMN2 levels and providing a therapeutic intervention for SMA patients.

Another data set concerns fl-SMN2 mRNA. Put plainly: fl-SMN2 mRNA in GM03813 SMA patient cells expressing DcpS variants. As to conditions: GM03813 cells knocked down for DcpS, stably expressing shRNA-resistant DcpS variant. The method, then:
(§1) FIGS. 3A-3C. DcpS^In15 increases fl-SMN2 mRNA and SMN protein in GM03813 SMA patient cells. FIG. 3A. fl-SMN2 mRNA levels were tested in GM03813 cells knocked down for DcpS and stably expressing the indicated shRNA-resistant DcpS variants. […] (Average of three biological replicates) FIG. 3B. Western of SMN and DcpS proteins from cells used in A. (Average of two biological replicates). FIG. 3C. SMN protein levels increase in GM0813 cells expressing DcpS^In15 with a background of endogenous levels of DcpS protein.

Another data set concerns SMN protein. Put plainly: Western of SMN protein in GM03813 SMA patient cells expressing DcpS variants. The note with it: background of reduced endogenous DcpS. The method, then:
as §1

Turning to “5′ TTCCAGCCAGAAA CCTTTACCTGCT 3′ (antisense TTCCAGCCAGAAACCTTTACCTGCT; vivo-morpholino guanidinium dendrimer delivery moiety, chemistry not fully specified) [vivo-morpholino oligonucleotide, antisense morpholino oligonucleotide containing a cell permeable guanidinium based dendramer delivery system (vivo-morpholino; GeneTools LLC)]”, in data set [1] (5 μM, 24 hours, RT-PCR), the “splicing that utilizes the DcpS^In15 splice site 45 nucleotides downstream” value is reported as ~50%; the “splicing with both sites blocked and skipping of exon 4 entirely” value is recorded as ~50%; the “utilization of the endogenous exon 4 splice site” value is recorded as “completely inhibits”. Moreover, the “level of DcpS^In15 mRNA” value in data set [1] (antisense oligonucleotide splice switching) is listed as “increased level”.

B1: wild type: wild type DcpS (scavenger decapping enzyme) used to complement DcpS knockdown cells (protein, UniProt Q96C86 2-337, looked up)
m7GpppX diphosphatase: ADAAPQLGKRKRELDVEEAHAASTEEKEAGVGNGTCAPVRLPFSGFRLQKVLRESARDKIIFLHGKVNEASGDGDGEDAVVILEKTPFQVEQVAQLLTGSPELQLQFSNDIYSTYHLFPPRQLNDVKTTVVYPATEKHLQKYLRQDLRLIRETGDDYRNITLPHLESQSLSIQWVYNILDKKAEADRIVFENPDPSDGFVLIPDLKWNQQQLDDLYLIAICHRRGIRSLRDLTPEHLPLLRNILHQGQEAILQRYRMKGDHLRVYLHYLPSYYHLHVHFTALGFEAPGSGVERAHLLAEVIENLECDPRHYQQRTLTFALRADDPLLKLLQEAQQS
As to B1, the “fl-SMN2 mRNA levels” value in the data set on fl-SMN2 mRNA is on record as “not observed”. The “SMN protein level (Western)” value with SMN protein was “not observed”.
